Laboratory results from patent US20250353828A1, “SUBSTITUTED BIARYL ENDOCHIN-LIKE QUINOLONES WITH ENHANCED ANTIPARASITIC ACTIVITY” (Oregon Health & Science University, priority 2022, published 2025).
Read-outs that look alike come from different tables or passages of the source.

Tests used:
[1] = test system: P. falciparum Dd2 strain (multidrug resistant); test: microbe, parasite or virus in culture; assay type: cell-based, Plasmodium falciparum; conditions: Plasmodium falciparum, DD2, 72 h, read-out: P. falciparum IC50 values, nM Dd2
Description: (§1) Rationale for Synthesis of a 3-Biaryl Version of ELQ-300. […] All of this information is stored in a database with information relating to chemical structure, physical chemical properties, cross resistance patterns, mammalian cell cytotoxicity, enzyme inhibitor profiles, and synthesis details. […] We employed the SyBr Green assay and the plates were incubated for 72 hours before harvesting^18, 19. […] Stock solutions were freshly prepared in DMSO.
(§2) Plasmodium falciparum Culture. Laboratory strains of P. falciparum were cultured in human erythrocytes by standard methods. The parasites were grown in culture medium with fresh human erythrocytes maintained at 2% hematocrit at 37° C. in low-oxygen conditions (5% O2, 5% CO2, […] balance N2). […] Cultures were maintained at less than 10% parasitemia by transfer of infected cells to fresh erythrocytes and culture medium every 3 or 4 days.
(§3) In vitro drug susceptibility assays. SYBR green I assay. In vitro antiplasmodial activity was assessed using a published SYBR Green I fluorescence-based method. The drugs were added to 96-well plates using 2-fold serial dilutions in complete medium. […] Asynchronous P. falciparum parasites were diluted with uninfected erythrocytes and added to the wells to give a final culture volume of 100 μl at 2% hematocrit and 0.2% parasitemia. […] The parasites were then lysed by adding 100 μl of SYBR green I lysis buffer containing 0.2 μl/ml SYBR green I dye (10,000×) in 20 mM Tris (pH 7.5), 5 mM EDTA, 0.008% (wt/vol) saponin, and 0.08% (vol/vol) Triton X-100. The plates were incubated at room temperature for an hour in the dark. […] If the IC50 value fell outside of the initial tested range then the range was adjusted up or down and the assay was repeated.

[2] = Murine microsomal metabolic stability; conditions: for half-life at 1 μM: pH 7.4, T1/2 (minutes)
Source text: Ketanserin served as an internal standard for the metabolic rate of a known drug with known intermediate stability.
Imipramine or Osalmid were used as internal standards, and ketanserin was used as a control drug with intermediate stability.

[3] = test system: P. falciparum Tm90-C2B (atovaquone-resistant clinical isolate); test: In vitro antiplasmodial activity, SYBR Green I assay, Tm90-C2B; assay type: cell-based; conditions: Plasmodium falciparum, read-out: P. falciparum IC50 values, nM Tm90-C2B
Description: as §1, §2, §3

[4] = target: T1, human liver cytochrome bc1 complex (Homo sapiens, UniProt P00156); test: Inhibition of human cytochrome bc1 complex; assay type: biochemical; conditions: complex isolated from human liver tissue
T1 construct: human host cytochrome bc1 complex isolated from human liver tissue; from tissue; host or cells: human liver tissue
Source text: Human Cytochrome bc1 Assays.

[5] = test system: P. yoelii (Kenya Strain) blood stage infection in mice; test: 4-day Peters test against murine malaria; assay type: in vivo; conditions: for 4-day Peters Test Results ED50 / 4-day Peters Test Results ED90 / 4-day Peters Test Results NRD (non-recrudescence dose): P. yoelii in mice, oral gavage in PEG400 on Days 1-4, prodrugs dosed on molar equivalency to parent drug
Description: On Day 5 a drop of blood was taken from the tail and a blood smear was prepared, fixed with methanol, and stained with Giemsa. The operator then examined the stained smear microscopically to determine percent parasitemia. Dosages of 0.0025, 0.005, 0.01, 0.03, 0.1, 0.3, 1.0 and 10 mg/kg/day were used for the experiment. […] In this model animals were inoculated exactly as for the 4-day test on Day 0 however drug was administered only on Day 1 while the operator made smears on Day 5 and again weekly thereafter for animals that remained aparasitemic. Animals that remained aparasitemic out to […] were scored as cures.
(§4) In Vivo Efficacy against Murine Malaria. The P. yoelii 4-day test monitors suppression of patent infection in female CF1 mice. The test began with the inoculation (iv) of parasitized erythrocytes (3.5×10^4/P. yoelli) (from a donor animal) on the first day of the experiment (D0). […] Initially the 3-biaryl-ELQs were tested at doses of 0.0025, 0.005, 0.01, 0.03, 0.1, 0.3, 1.0 and 10 mg/kg/day, including a vehicle-only (PEG400) control. After completion of drug treatment, a blood sample was collected (by pricking the tail vein) for determination of parasite burden beginning on the day after the final dose (D5). Percent parasitemia is assessed by direct microscopic analysis of Giemsa-stained blood smears. […] Animals with observable parasitemia following the experiment were euthanized; animals cleared of parasites from the bloodstream were observed daily with assessment of parasitemia performed weekly until day 30, at which point the animal(s) were scored as cured of infection. […] Non-linear regression analysis is used for objective determination of ED50's and ED90's from the accumulated data as well as the Non-Recrudescence Dose (NRD). The 4-day test protocol was reviewed and approved by the local IACUC board at the Portland VA Medical Center. Experiments were performed with 4 mice per group to ensure statistical accuracy.

[6] = target: T2, P. falciparum cytochrome bc1 complex (Plasmodium falciparum, UniProt Q02768); test: biochemical; conditions: cytochrome bc1 activity from P. falciparum mitochondria
T2 construct: endogenous in cells
T2 sequence (Q02768 1-376): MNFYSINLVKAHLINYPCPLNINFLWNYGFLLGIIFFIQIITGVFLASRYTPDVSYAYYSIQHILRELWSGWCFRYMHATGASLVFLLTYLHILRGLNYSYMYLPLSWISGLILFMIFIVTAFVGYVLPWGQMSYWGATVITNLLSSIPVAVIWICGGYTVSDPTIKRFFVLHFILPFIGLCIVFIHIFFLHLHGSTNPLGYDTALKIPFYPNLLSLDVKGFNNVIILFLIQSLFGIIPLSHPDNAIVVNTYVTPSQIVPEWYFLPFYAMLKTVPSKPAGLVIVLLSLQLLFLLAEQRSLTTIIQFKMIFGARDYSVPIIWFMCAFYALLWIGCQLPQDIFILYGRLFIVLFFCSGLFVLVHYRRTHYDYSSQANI
Source text: Isolation of Plasmodium falciparum Mitochondria and Ubiquinol-Cytochrome c Oxidoreductase Assay.

HepG2 cells = test: HepG2 cytotoxicity, TiterGlo ATP luminescence, galactose medium; assay type: cell-based, human
Description: (§5) […]. Of course, enhanced potency is desirable only if unaccompanied by enhanced toxicity. […] […]. The incubation period for these experiments was 48 hours.

[7] = as above; assay type: cell-based, human; conditions: human
Description: as §5

[8] = test system: P. falciparum D6 strain (drug sensitive); test: In vitro antiplasmodial activity, SYBR Green I assay, D6 strain; assay type: cell-based, Plasmodium falciparum; conditions: for IC50: Plasmodium falciparum, read-out: P. falciparum IC50 values, nM D6
Description: as §1, §2, §3

[9] = test system: P. yoelii blood stage infection in mice; test: In vivo single-dose cure against murine malaria; conditions: for Single dose cure: lowest single dose that cures all 4 mice, P. yoelii, prodrugs dosed on molar equivalency to parent drug
Description: Animals that remained aparasitemic out to […] were scored as cures.
In Vivo Single-Dose Efficacy against Murine Malaria. The effectiveness of selected 3-biarylELQs and prodrugs was assessed vs. the blood stage infection for single dose cures. Mice are infected iv with 3.5×10^4 P. yoelii infected RBCs as described for the 4-day test above. Drug administration occurred on the day after inoculation (Day 1). Test agents were dissolved in PEG-400 and administered ig once. On the 5th day blood films were prepared and % parasitemia was assessed. Animals remaining parasite-free for 30 days after drug administration were considered cured. The initial dosing range was: 0.5, 1, 2.5, 5, 10 mg/kg, including a control. Experiments were performed with 4 mice per group to ensure statistical accuracy. The reported parameter for these studies is the lowest single dose that provides a cure to all 4 animals in the group.

[10] = test system: P. falciparum D1 clone (ELQ-300 resistant); test: microbe, parasite or virus in culture; assay type: cell-based; conditions: Plasmodium falciparum, 72 h, read-out: P. falciparum IC50 values, nM D1
[11] = Appearance, behaviour and weight observations in the in vivo efficacy-testing model; conditions: mice, at any dose level of the efficacy tests
Description: as §4

[12] = target: T1, human liver cytochrome bc1 complex; conditions: data taken from Nilsen et al., 2013 (a) or Frueh et al., 2017 (b); cited from earlier work
[13] = target: T2, P. falciparum cytochrome bc1 complex; conditions: data taken from Nilsen et al., 2013 (a) or Frueh et al., 2017 (b); cited from earlier work
[14] = mouse, pooled liver microsomes, murine liver microsomes 0.5 mg/ml, 37° C., NADPH, 45 minutes
[15] = Tm90-C2B strain, 72 h incubation, averages of quadruplicate with (95% confidence intervals)
[16] = D6 strain, 72 h incubation, averages of quadruplicate with (95% confidence intervals)

## COc1cc2[nH]c(C)c(-c3ccc(-c4ccc(OC(F)(F)F)cc4)cc3)c(=O)c2cc1Cl [ELQ-596, 6-chloro-7-methoxy-2-methyl-3-(4′-(trifluoromethoxy)-[1,1′-biphenyl]-4-yl)quinolin-4(1H)-one]
[1]
  IC50: 0.4 nM
[2]; mouse, pooled liver microsomes, pH 7.4
  CLint scaled at 1 μM: 1.15 mL/min/kg
[2]; [14]
  half-life at 1 μM: > 66.7 h
[2]; murine liver microsomes 0.5 mg/ml, 37° C., NADPH, 45 minutes
  T1/2 (minutes): 4,260 minutes
[3]; TM90, 72 h
  IC50: 0.2 nM
[4]
  IC50: > 10000 nM
[5]
  4-day Peters Test Results ED50: 0.01 mg/kg/day
  4-day Peters Test Results ED90: 0.021 mg/kg/day
  4-day Peters Test Results NRD (non-recrudescence dose): 0.3 mg/kg/day
[6]
  IC50: 0.1 nM
HepG2 cells; medium with galactose instead of glucose
  EC50: > 10000 nM
[7]; HepG2, galactose medium, 48 hours, read-out: EC50 (cytotoxicity)
  EC50 at 48 h: > 10000 nM
[8]; D6 and Dd2 strains as well as C2B
  improvement of IC50 values over ELQ-300: 8- to 10 fold
[8]; D6, 72 h
  IC50: 0.3 nM

## CCN(CC)CCCC(C)Nc1ccnc2cc(Cl)ccc12 (stereo not drawn) [CQ, chloroquine, reference compound]
[5]
  4-day Peters Test Results NRD (non-recrudescence dose): >64 mg/kg/day
[9]; dose on Day 1
  Single dose cure: >64 mg/kg/day

## CCOC(=O)OCOc1c(-c2ccc(-c3ccc(OC(F)(F)F)cc3)cc2)c(C)nc2cc(OC)ccc12 [ELQ-695, Ethyl (((7-methoxy-2-methyl-3-(4′-(trifluoromethoxy)-[1,1′-biphenyl]-4-yl)quinolin-4-yl)oxy)methyl) carbonate]
[10]
  IC50: 8.4 nM
[1]
  IC50: 22.3 nM
[2]; [14]
  half-life at 1 μM: > 66.7 h
[3]; [15]
  IC50: 10.1 nM
[5]
  4-day Peters Test Results ED50: 0.2 mg/kg/day
  4-day Peters Test Results ED90: 0.3 mg/kg/day
  4-day Peters Test Results NRD (non-recrudescence dose): 3.7 mg/kg/day
[8]; [16]
  IC50: 20.9 nM

## CCOC(=O)OCOc1c(-c2ccc(-c3ccc(OC(F)(F)F)cc3)cc2)c(C)nc2cc(OC)c(Cl)cc12 [ELQ-598, ((6-chloro-7-methoxy-2-methyl-3-(4′-(trifluoromethoxy)-[1,1′-biphenyl]-4-yl)quinolin-4-yl)oxy)methyl ethyl carbonate]
[3]; [15]
  IC50: 0.8 nM
[4]
  IC50: > 10000 nM
[5]; 4-day test
  ED50, ED90 and NRD lower than for ELQ-300 and ELQ-331: roughly 3 fold
[5]
  4-day Peters Test Results ED50: 0.006 mg/kg/day
  4-day Peters Test Results ED90: 0.01 mg/kg/day
  4-day Peters Test Results NRD (non-recrudescence dose): 0.1 mg/kg/day
[6]
  P. falciparum cytochrome bc1, nM: only feeble inhibitory activity
[7]
  EC50 at 48 h: > 10000 nM
[11]
  appearance, behavioral or weight changes after dosing: no appearance, behavioral or weight changes
[8]; [16]
  IC50: 1.5 nM
[9]; P. yoelii in mice, dose on Day 1, lowest dose tested to date, as parent drug equivalent
  lowest fully protective single dose cure: 0.5 mg/kg
[9]; blood stage malaria infections in mice
  more effective as a single dose cure compared directly to ELQ-331: at least 6 times
[9]; dose on Day 1
  Single dose cure: ≤0.5 mg/kg/day
[9]; same result expressed as mass of prodrug
  lowest fully protective single dose cure, mg/kg of prodrug: 0.6 mg/kg

## CCOC(=O)OCOc1c(-c2ccc(Oc3ccc(OC(F)(F)F)cc3)cc2)c(C)nc2cc(OC)c(Cl)cc12 [ELQ-331, reference compound]
[12]
  IC50: > 10000 nM
[13]
  IC50: 5300 nM
[5]
  4-day Peters Test Results ED90: 0.05 mg/kg/day
  4-day Peters Test Results NRD (non-recrudescence dose): 1.0 mg/kg/day
[9]; dose on Day 1
  Single dose cure: 3 mg/kg/day

## C=C(C)[C@H]1Cc2c(ccc3c2O[C@@H]2COc4cc(OC)c(OC)cc4[C@@H]2C3=O)O1 [rotenone, reference compound]
HepG2 cells; HepG2, galactose medium, 48 hours
  EC50 (cytotoxicity): quite cytotoxic

## COc1ccc2c(=O)c(-c3ccc(-c4ccc(OC(F)(F)F)cc4)cc3)c(C)[nH]c2c1 [ELQ-685, 7-Methoxy-2-methyl-3-(4′-(trifluoromethoxy)-[1,1′-biphenyl]-4-yl)quinolin-4(1H)-one]
[10]
  IC50: 3.5 nM
[1]
  IC50: 8.5 nM
[2]; [14]
  half-life at 1 μM: > 66.7 h
[3]; [15]
  IC50: 5.2 nM
[8]; [16]
  IC50: 5.8 nM

## O=C1C(O)=C([C@H]2CC[C@H](c3ccc(Cl)cc3)CC2)C(=O)c2ccccc21 [Atovaquone, reference compound]
[12]
  IC50: 460 nM
[10]
  IC50: 0.4 nM
[1]
  IC50: 0.4 nM
[3]; [15]
  IC50: > 1000 nM
[5]
  4-day Peters Test Results ED50: 0.1 mg/kg/day
  4-day Peters Test Results NRD (non-recrudescence dose): 10 mg/kg/day
[8]; [16]
  IC50: 0.08 nM
[9]; dose on Day 1
  Single dose cure: 10 mg/kg/day
